These results are taken from paper PMC5739597, “Discovery and evaluation of triple inhibitors of VEGFR-2, TIE-2 and EphB4 as anti-angiogenic and anti-cancer agents” (Oncotarget, 2017).

For one series, the target named is T1, EphB4 (Homo sapiens, UniProt P54760).
T1 sequence (P54760 16-987): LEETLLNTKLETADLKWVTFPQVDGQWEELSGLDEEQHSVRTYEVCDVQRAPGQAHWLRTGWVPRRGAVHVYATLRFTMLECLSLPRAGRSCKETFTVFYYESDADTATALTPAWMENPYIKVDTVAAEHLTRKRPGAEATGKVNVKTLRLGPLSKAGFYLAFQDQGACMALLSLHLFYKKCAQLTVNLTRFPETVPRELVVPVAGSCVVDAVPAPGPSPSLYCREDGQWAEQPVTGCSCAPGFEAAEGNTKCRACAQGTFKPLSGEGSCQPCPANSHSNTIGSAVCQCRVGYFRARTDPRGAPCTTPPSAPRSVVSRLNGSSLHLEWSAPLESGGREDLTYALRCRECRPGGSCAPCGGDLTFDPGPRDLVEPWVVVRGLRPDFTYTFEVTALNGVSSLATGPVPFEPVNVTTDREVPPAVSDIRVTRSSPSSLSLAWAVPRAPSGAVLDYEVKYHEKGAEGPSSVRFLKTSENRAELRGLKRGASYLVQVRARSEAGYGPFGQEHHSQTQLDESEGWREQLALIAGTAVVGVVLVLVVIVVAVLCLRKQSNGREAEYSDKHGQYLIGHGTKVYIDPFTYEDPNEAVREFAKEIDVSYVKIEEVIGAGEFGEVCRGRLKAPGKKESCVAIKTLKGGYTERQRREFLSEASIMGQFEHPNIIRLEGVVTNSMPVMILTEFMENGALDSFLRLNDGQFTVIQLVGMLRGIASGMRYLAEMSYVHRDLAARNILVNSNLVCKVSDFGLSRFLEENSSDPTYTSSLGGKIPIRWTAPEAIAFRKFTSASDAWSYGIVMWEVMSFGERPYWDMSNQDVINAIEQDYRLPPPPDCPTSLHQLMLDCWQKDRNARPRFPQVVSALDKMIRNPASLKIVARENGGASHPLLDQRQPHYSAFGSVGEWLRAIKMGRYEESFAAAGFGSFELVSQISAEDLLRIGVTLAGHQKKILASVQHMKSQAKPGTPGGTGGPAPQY
In words: ADP-Glo in vitro RTK inhibition assay, EphB4. It is filed as biochemical. Conditions: ATP 50 μM. On the procedure: (§1) In order to validate the direct effect of title compounds on VEGFR-2, Tie-2, and EphB4 kinases, we performed in vitro assay using the ADP-Glo Kinase Assay Kit (Promega, Wisconsin, USA).
(§2) The kinase assay was performed in a reaction mixture of final volume of 10 μL. […] The plate was incubated at 30°C for 1 h. After the plate was cooled at room temperature for 5 min, 5 μL of ADP-Glo reagent was added into each well to stop the reaction and consume the remaining […] within 40 min. At the end, 10 μL of kinase detection reagent was added into the well and incubated for 30 min to produce a luminescence signal. […] The assay plate was incubated at 30°C for 4 h. After the plate was cooled at room temperature for 5 min, 5 μL of ADP-Glo reagent was added into each well to stop the reaction and consume the remaining […] within 1 h. At the end, 10 μL of kinase detection reagent was added into each well and incubated for 30 min to produce a luminescence signal. The luminescence was read by VICTOR-X multi-label plate reader.
(In ADP-Glo the light output rises with the ADP produced.)

A further series concerns EA.hy926. In words: Human endothelial cell (EA.hy926) viability assay, CCK-8. The following applies: Homo sapiens, EA.hy 926, 24 h, CCK-8, 24 h treatment; read-out: Inhibition of human endothelial cell viability, EA.hy926 IC50. It is filed as cell-based. The protocol:
In order to determine the anti-angiogenic effect of these multi-target inhibitors, we evaluated their effect on HECs (EA.hy926) viability using cell counting kit-8 (CCK-8) method.
The viability of HECs (EA.hy926) was assessed using the cell counting kit-8 (CCK-8, Sigma, USA) assay according to the manufacturer's instruction. […] After incubation at 37°C for 48 h, the cells were treated with tested compounds at various concentrations for 24 h. Subsequently, premixed CCK-8 and medium (10 μL) were added into the 96-well plates to monitor cell viability and were incubated at 37°C for 2 h. The number of viable cells was assessed by measurement of absorbance at 450 nm by a microplate reader. The viability rate was calculated as experimental OD value/control OD value.

For another series, the target named is VEGFR-2 (Homo sapiens, UniProt P35968). In words: ADP-Glo in vitro RTK inhibition assay, VEGFR-2. It is filed as biochemical. The following applies: ATP 50 μM. The protocol:
as §1, §2

Another series concerns the target TIE-2 (Homo sapiens, UniProt Q02763). In words: ADP-Glo in vitro RTK inhibition assay, TIE-2. The class given is biochemical. The following applies: ATP 50 μM. On the procedure: as §1, §2

pIC50: −log10 of the molar value.

Chain of VEGFR-2 (P35968 20-1356): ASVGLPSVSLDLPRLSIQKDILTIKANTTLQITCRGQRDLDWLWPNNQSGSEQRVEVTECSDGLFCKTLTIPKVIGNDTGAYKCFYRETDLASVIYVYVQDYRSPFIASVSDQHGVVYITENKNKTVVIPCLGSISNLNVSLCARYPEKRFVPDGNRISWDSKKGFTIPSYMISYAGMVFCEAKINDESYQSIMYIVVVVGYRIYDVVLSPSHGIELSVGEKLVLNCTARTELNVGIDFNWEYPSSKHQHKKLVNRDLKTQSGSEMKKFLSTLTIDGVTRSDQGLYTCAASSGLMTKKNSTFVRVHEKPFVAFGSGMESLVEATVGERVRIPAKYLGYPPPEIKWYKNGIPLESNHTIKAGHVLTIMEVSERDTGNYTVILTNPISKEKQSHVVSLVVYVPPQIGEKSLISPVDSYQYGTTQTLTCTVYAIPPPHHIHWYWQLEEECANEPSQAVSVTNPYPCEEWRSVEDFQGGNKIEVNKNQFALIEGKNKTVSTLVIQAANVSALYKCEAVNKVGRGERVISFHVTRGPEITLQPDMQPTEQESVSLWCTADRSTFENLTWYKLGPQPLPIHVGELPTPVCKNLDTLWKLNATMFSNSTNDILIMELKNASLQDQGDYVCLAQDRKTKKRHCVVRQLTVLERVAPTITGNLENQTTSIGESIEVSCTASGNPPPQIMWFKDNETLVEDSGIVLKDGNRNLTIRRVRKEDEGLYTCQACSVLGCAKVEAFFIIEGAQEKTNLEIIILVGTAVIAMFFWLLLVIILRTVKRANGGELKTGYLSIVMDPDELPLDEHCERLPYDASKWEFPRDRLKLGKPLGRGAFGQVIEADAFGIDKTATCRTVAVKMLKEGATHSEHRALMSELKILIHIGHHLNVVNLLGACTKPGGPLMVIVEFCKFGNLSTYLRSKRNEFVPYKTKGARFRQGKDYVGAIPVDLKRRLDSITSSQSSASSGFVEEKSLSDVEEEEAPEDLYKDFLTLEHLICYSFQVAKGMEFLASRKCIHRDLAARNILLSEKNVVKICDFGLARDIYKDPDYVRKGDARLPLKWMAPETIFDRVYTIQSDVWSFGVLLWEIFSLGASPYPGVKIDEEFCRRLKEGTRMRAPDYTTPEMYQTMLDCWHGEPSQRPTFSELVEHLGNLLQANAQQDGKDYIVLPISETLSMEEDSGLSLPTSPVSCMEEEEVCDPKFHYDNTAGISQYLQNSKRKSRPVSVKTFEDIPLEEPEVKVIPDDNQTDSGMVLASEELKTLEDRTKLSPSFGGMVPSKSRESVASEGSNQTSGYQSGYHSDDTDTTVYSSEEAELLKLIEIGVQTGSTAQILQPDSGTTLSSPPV
Chain of TIE-2 (Q02763 23-1124): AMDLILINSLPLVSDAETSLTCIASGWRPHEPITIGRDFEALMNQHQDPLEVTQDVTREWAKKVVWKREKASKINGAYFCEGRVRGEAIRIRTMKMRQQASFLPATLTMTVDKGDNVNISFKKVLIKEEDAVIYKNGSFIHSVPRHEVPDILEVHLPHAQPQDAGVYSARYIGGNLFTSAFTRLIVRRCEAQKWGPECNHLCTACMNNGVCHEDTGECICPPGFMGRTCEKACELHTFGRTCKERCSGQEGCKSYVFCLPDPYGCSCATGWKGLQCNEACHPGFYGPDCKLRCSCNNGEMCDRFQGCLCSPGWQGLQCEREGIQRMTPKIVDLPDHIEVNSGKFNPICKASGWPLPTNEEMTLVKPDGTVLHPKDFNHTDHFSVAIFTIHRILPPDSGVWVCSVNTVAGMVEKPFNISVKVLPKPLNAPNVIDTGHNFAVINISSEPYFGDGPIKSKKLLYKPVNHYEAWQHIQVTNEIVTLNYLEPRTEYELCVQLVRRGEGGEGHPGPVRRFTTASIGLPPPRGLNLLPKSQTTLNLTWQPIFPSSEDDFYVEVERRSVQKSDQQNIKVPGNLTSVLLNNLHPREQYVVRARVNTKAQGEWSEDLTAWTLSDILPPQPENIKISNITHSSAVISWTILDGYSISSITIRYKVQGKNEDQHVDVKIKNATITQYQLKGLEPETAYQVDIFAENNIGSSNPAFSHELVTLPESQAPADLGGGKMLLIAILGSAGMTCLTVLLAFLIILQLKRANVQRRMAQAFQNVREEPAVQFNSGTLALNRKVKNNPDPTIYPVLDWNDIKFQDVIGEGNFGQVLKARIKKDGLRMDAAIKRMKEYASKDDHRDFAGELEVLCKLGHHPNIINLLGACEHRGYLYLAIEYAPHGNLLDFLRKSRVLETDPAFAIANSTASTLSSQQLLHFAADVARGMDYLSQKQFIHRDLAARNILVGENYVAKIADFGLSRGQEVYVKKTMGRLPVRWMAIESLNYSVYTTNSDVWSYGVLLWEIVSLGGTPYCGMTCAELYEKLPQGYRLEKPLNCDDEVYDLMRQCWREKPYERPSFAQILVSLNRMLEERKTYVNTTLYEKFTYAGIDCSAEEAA

Broadly, the pIC50 is the negative decadic logarithm of the IC50, by convention in mol/L. In general, melting point refers to the temperature, or range, at which the solid turns liquid. `O=C(Nc1ccc(OC(F)(F)F)cc1)Nc1ccc(-c2ccc3c(=O)[nH]cnc3c2)cc1` [QDAU7, 1-(4-(4-oxo-3,4-dihydroquinazolin-7-yl)phenyl)-3-(4-(trifluoromethoxy)phenyl)urea]: the melting point was more than 300 °C. On EphB4, this molecule had a pIC50 of less than 6.30. In addition, the pIC50 with EA.hy926 was 4.16. Besides, on VEGFR-2, the negative-log IC50 (pIC50) was less than 6.30. This molecule gave a pIC50 at TIE-2 of 6.59.

`S=C(Nc1ccc(-c2cccnc2)cc1)Nc1ccc2c(c1)OCO2` [DATU10, N-1,3-benzodioxol-5-yl-N’-(4-pyridin-3-ylphenyl)thiourea] registered a melting point of 147 to 148 °C. At EphB4, this molecule showed a pIC50 of less than 6.30. Besides, the pIC50 in the series with EA.hy926 is 4.04. The same molecule had a negative-log IC50 (pIC50) against VEGFR-2 of 7.69. Besides, on TIE-2, the pIC50 is less than 6.30.

Consider `O=C(Nc1ccc(-c2ccc3c(=O)[nH]cnc3c2)cc1)Nc1ccc(C(F)(F)F)cc1` [QDAU10, 1-(4-(4-oxo-3,4-dihydroquinazolin-7-yl)phenyl)-3-(4-(trifluoromethyl)phenyl)urea], for which the melting point is more than 300 °C. This molecule also gave a pIC50 on EphB4 of less than 6.30. Besides, in the series on EA.hy926, the pIC50 was 3.90. In addition, the pIC50 on VEGFR-2 was 7.29. Also, the pIC50 against TIE-2 was 7.28.

Turning to `FC(F)(F)Oc1ccc(NC(=S)Nc2ccc(-c3cccnc3)cc2)c(Br)c1` [DATU3, N-[2-bromo-4-(trifluoromethoxy)phenyl]-N’-(4-pyridin-3-ylphenyl)thiourea], the melting point was in the range of 162 to 163 °C. Further, on EphB4, the pIC50 is 7.66. Also, in the series on EA.hy926, the pIC50 is 3.91. Moreover, the negative logarithm of the IC50 (pIC50) against VEGFR-2 was less than 6.30. For the same molecule, at TIE-2, the pIC50 was 7.70.

`FC(F)(F)Oc1ccc(Br)c(NC(=S)Nc2ccc(-c3cccnc3)cc2)c1` [DATU5, N-[2-bromo-5-(trifluoromethoxy)phenyl]-N’-(4-pyridin-3-ylphenyl)thiourea]: the melting point lay within 125 to 126 °C. On EphB4, this molecule gave a pIC50 of 7.27. In the series with EA.hy926, the pIC50 was 3.61. The same molecule gave a pIC50 at VEGFR-2 of less than 6.30. The pIC50 at TIE-2 was less than 6.30.

Molecule `O=C(Nc1ccc(-c2ccc3c(=O)[nH]cnc3c2)cc1)Nc1cccc(F)c1` [QDAU3, 1-(3-fluorophenyl)-3-(4-(4-oxo-3,4-dihydroquinazolin-7-yl)phenyl)ure] yielded a melting point of more than 300 °C. At EphB4, the pIC50 is 8.25. Also, the pIC50 in the series with EA.hy926 was 4.37. In addition, the pIC50 on VEGFR-2 is less than 6.30. Moreover, the pIC50 at TIE-2 was 7.04.

`FC(F)(F)Oc1ccc(Br)cc1NC(=S)Nc1ccc(-c2cccnc2)cc1` [DATU4, N-[5-bromo-2-(trifluoromethoxy)phenyl]-N’-(4-pyridin-3-ylphenyl)thiourea] returned a melting point of 154 to 155 °C. This molecule also gave a pIC50 on EphB4 of 7.73. In the series with EA.hy926, the pIC50 was 4.35. Moreover, the pIC50 on VEGFR-2 was less than 6.30. The molecule further had a negative logarithm of the IC50 (pIC50) on TIE-2 of less than 6.30.

Take `FC(F)(F)Oc1cc(Br)ccc1NC(=S)Nc1ccc(-c2cccnc2)cc1` [DATU2, N-[4-bromo-2-(trifluoromethoxy)phenyl]-N’-(4-pyridin-3-ylphenyl)thiourea]: the melting point lay in the range of 144 to 145 °C. Further, the negative logarithm of the IC50 (pIC50) against EphB4 is less than 6.30. For the same molecule, in the series with EA.hy926, the pIC50 was 4.05. At VEGFR-2, this molecule gave a negative logarithm of the IC50 (pIC50) of less than 6.30. At TIE-2, this molecule gave a pIC50 of 7.19.

Turning to `O=C(Nc1ccc(F)cc1)Nc1ccc(-c2ccc3c(=O)[nH]cnc3c2)cc1` [QDAU6, 1-(4-fluorophenyl)-3-(4-(4-oxo-3,4-dihydroquinazolin-7-yl)phenyl)urea], the melting point is more than 300 °C. The molecule also had a pIC50 against EphB4 of less than 6.30. Further, the pIC50 with EA.hy926 is 3.59. The molecule also showed a pIC50 on VEGFR-2 of 8.20. The pIC50 against TIE-2 is 7.00.

Consider `S=C(Nc1ccc(-c2cccnc2)cc1)Nc1ccc(Cl)c(Cl)c1` [DATU8, N-(3,4-dichlorophenyl)-N’-(4-pyridin-3-ylphenyl)thiourea], for which the melting point was in the range of 173 to 175 °C. The molecule further had a pIC50 at EphB4 of less than 6.30. The pIC50 in the series on EA.hy926 is 3.99. On VEGFR-2, this molecule had a negative logarithm of the IC50 (pIC50) of 6.45. Also, the pIC50 on TIE-2 was 8.03.

For `Fc1ccc(NC(=S)Nc2ccc(-c3cccnc3)cc2)cc1F` [DATU7, N-(3,4-difluorophenyl)-N’-(4-pyridin-3-ylphenyl)thiourea], the melting point fell in the range of 139 to 140 °C. The molecule also gave a pIC50 at EphB4 of 8.00. In the series with EA.hy926, the pIC50 is 4.02. Besides, at VEGFR-2, the pIC50 was 7.34. The negative logarithm of the IC50 (pIC50) on TIE-2 is 7.32.

Turning to `O=C(Nc1ccc(-c2ccc3c(=O)[nH]cnc3c2)cc1)Nc1cccc(C(F)(F)F)c1` [QDAU1, 1-(4-(4-oxo-3,4-dihydroquinazolin-7-yl)phenyl)-3-(3-(trifluoromethyl)phenyl)urea], the negative-log IC50 (pIC50) was less than 6.30 against EphB4, 4.24 in the series with EA.hy926, 6.71 against VEGFR-2 and 7.15 at TIE-2.

For `O=C(Nc1ccc(-c2ccc3c(=O)[nH]cnc3c2)cc1)Nc1cccc(Cl)c1` [QDAU2, 1-(3-chlorophenyl)-3-(4-(4-oxo-3,4-dihydroquinazolin-7-yl)phenyl)urea], the melting point is more than 300 °C. Further, the negative-log IC50 (pIC50) at EphB4 was less than 6.30. Moreover, in the series on EA.hy926, the negative logarithm of the IC50 (pIC50) is 4.18. Besides, the pIC50 at VEGFR-2 was 7.24. This molecule had a pIC50 against TIE-2 of 7.08.

`O=C(Nc1ccc(-c2ccc3c(=O)[nH]cnc3c2)cc1)Nc1ccc(Cl)c(C(F)(F)F)c1` [QDAU9, 1-(4-chloro-3-(trifluoromethyl)phenyl)-3-(4-(4-oxo-3,4-dihydroquinazolin-7-yl)phenyl)urea] yielded a melting point of more than 300 °C. On EphB4, this molecule gave a negative-log IC50 (pIC50) of 7.61. The pIC50 in the series on EA.hy926 was 4.89. Further, the pIC50 against VEGFR-2 is 7.80. For the same molecule, on TIE-2, the pIC50 was 7.71.

Turning to `FC(F)(F)c1cc(NC(=S)Nc2ccc(-c3cccnc3)cc2)cc(C(F)(F)F)c1` [DATU9, N-[3,5-bis(trifluoromethyl)phenyl]-N’-(4-pyridin-3-ylphenyl)thiourea], the melting point fell in the range of 157 to 158 °C. In addition, the pIC50 on EphB4 was less than 6.30. For the same molecule, in the series with EA.hy926, the pIC50 was 3.78. At VEGFR-2, this molecule had a pIC50 of less than 6.30. Besides, the pIC50 at TIE-2 is less than 6.30.

Regarding `CC(C)c1cccc(NC(=O)Nc2ccc(-c3ccc4c(=O)[nH]cnc4c3)cc2)c1` [QDAU8, 1-(3-isopropylphenyl)-3-(4-(4-oxo-3,4-dihydroquinazolin-7-yl)phenyl)urea], the melting point is more than 300 °C. The negative-log IC50 (pIC50) on EphB4 was less than 6.30. The pIC50 with EA.hy926 was 4.12. At VEGFR-2, this molecule had a pIC50 of 7.38. The molecule also had a pIC50 at TIE-2 of less than 6.30.

Take `FC(F)(F)c1cc(Br)cc(NC(=S)Nc2ccc(-c3cccnc3)cc2)c1` [DATU1, N-[3-bromo-5-(trifluoromethyl)phenyl]-N’-(4-pyridin-3-ylphenyl)thiourea]: the melting point is 197 to 199 °C. Moreover, the pIC50 on EphB4 is 7.70. The pIC50 on VEGFR-2 was 7.69. Also, the pIC50 on TIE-2 is 7.59.

Regarding `S=C(Nc1ccc(-c2cccnc2)cc1)Nc1ccc(Cl)cc1Cl` [DATU6, N-(2,4-dichlorophenyl)-N’-(4-pyridin-3-ylphenyl)thiourea], the melting point lay in the range of 156 to 157 °C. The molecule further had a pIC50 against EphB4 of 8.41. Besides, the pIC50 with EA.hy926 was 4.61. On VEGFR-2, the pIC50 was 7.63. Further, the pIC50 on TIE-2 is 7.18.
